Experimental data published in patent publication US20080261234A1, “Peptides and their use in assays for cardiovascular disease” (priority 2000, published 2008).
Where no end group is shown, it is not given here.

How the values were obtained:
[1] = test system: autoantibodies against oxLDL in serum samples; test: Peptide EIA: autoantibodies against peptides and peptide-MDA complexes; assay type: binding, human; set-up: key to reaction of autoantibodies (mean ±SD): absorbance at 450 nm, blank subtracted; conditions: for amount of autoantibodies, mean absorbance after subtracting the blank: Patients (n = 20), six forms of p63 peptide antigen; for reaction of autoantibodies (mean ±SD): plate coated with natp63, MDA and MDAp63; for Reactivity of autoantibodies, absorbance (PEPTIDE EIA): absorbance at 450 nm, serum 1:20; for MDAp63:natp63 ratio: after subtracting the blank
Protocol: Native and MDA-modified peptides were tested always on the same plate. One half of the plate was coated with the native peptide (20 μg/ml) and the other half was coated with the MDA-modified peptide [(20 μg/ml) 100 μl/well in 100 mmol/l bicarbonate buffer (pH 9.5)]. Coated plates were incubated overnight at room temperature (RT) and then washed with an automatic washer (Wellwash 4 MK II, Labsystems Oy) three times with phosphate buffered saline (PBS) containing 0.05% Tween 20. Plates were blocked with PBS containing 1% human serum albumin (HSA) (150 μl/well) for 1 h at RT and washed as above. Serum samples were diluted 1:20 in PBS containing 0.2% HSA and 0.05% Tween 20 and pipetted 100 μl/well. Plates were incubated for 2 h at RT and washed as above. HRP-conjugated anti-human IgG (diluted 1:20 000 in the sample buffer) was added (100 μl) to each well and incubated for 1 h at RT. After washing, colour was developed by adding the peroxidase substrate (tetramethylbenzidine (TMB) as a chromagen, 100 μl/well) and incubating the plates for 30 min at room temperature in the dark. The reaction was stopped with 0.5 mol/l H2SO4 (100 μl/well) and absorbances were measured at 450 nm (Multiskan microplate reader, Labsystems Oy). The results are shown in Table 2 and are expressed as the absorbance measurement obtained for the native and the modified peptides or as the ratio between antibody binding to the native and the modified peptides after subtracting the blank control.
To find out whether autoantibodies react with the peptide, with MDA or both when peptide-MDA complexes are used as antigen, a microtiter plate was coated with natp63, MDA and MDAp63 antigen and the immunoassays performed. MDA antigen was prepared as MDAp63 antigen but without peptide and MDA was diluted for coating in the same way as MDAp63.

[2] = test system: antibodies of patient samples binding to coated peptide; test: Inhibition test: increasing concentrations of peptide added to sample diluent in peptide EIA; set-up: species or system human; conditions: inhibitor 100 μg/ml
Protocol: The specificity of cyclic (p244cyc) and the corresponding linear peptide (p244) were tested in inhibition tests by adding increasing concentrations of peptides to sample diluent. P244cyc peptide inhibited with the highest inhibitor concentration (100 μg/ml), the average being 61% of the binding of 8 patient samples (FIG. 2A); 3 samples were inhibited by less than 50%. P244 inhibited with the highest inhibitor concentration (100 μg/ml), the average being 70% of the binding of 24 patient samples (FIG. 2B). 3 samples were inhibited less than 50%. P244 seemed to be more specific than p244cyc peptide. Finally, it was confirmed that the epitope of p244 is similar to p63 by coating plate with p244 and inhibiting the binding of patient samples with p63. P63 inhibited with the highest inhibitor concentration (100 μg/ml), the average being 53% of the binding of 22 patient samples (FIG. 3). 9 samples were inhibited less than 50%.

[3] = test system: autoantibodies against oxLDL in serum samples; test: OxLDL EIA with copper-oxidized human LDL as antigen; assay type: binding; conditions: for Reactivity of autoantibodies, absorbance (OxLDL EIA): absorbance at 450 nm
Protocol: Various native and modified peptides, derived from the amino acid sequence of apoB-100 (Chen et al., supra), were tested as antigens suitable for use in EIA. The peptides were modified with MDA to produce similar oxidation specific epitopes as in oxLDL. The results of peptide EIA are compared to the results of oxLDL EIA which was optimized using copper-oxidized LDL as antigen; see Närvänen et al., Free Radical Biology & Medicine, in press.

[4] = test system: antibodies of patient samples against the peptides; test: Specificity test: peptide EIA with 0.5 M sodium chloride added to sample diluent; assay type: binding, human; conditions: mean of 20 patient samples
Protocol: The specificity of different antigens was tested by titration of peptides. […] In addition, the specificity of antibodies against cyclic and linear peptides, p244cyc and p244, was tested by adding 0.5 M sodium chloride to sample diluent. The titer of patient samples against p244, p244cyc and p63-MDA was 19%, 38% and 47% lower (mean of 20 patient samples), respectively, when salt was added to sample diluent. It appears that antibodies against p244 have the best specificity.

Compound: LSVKAQYKKNKHRHSITNPL [p63, 2, 20 amino acids, 4 lysines]
- amount of autoantibodies, mean absorbance after subtracting the blank [1]: 0.389—
- reaction of autoantibodies (mean ±SD) ([1]; control samples, n=23): 0.282±0.100
- Reactivity of autoantibodies, absorbance (PEPTIDE EIA) ([1]; healthy controls (n = 17)): 0.216 ± 0.142
- reaction of autoantibodies (mean ±SD) ([1]; patient samples, n=16): 0.222±0.041
- Reactivity of autoantibodies, absorbance (PEPTIDE EIA) ([1]; patients (n = 19)): 0.159 ± 0.079
- average inhibition of the binding of patient samples ([2]; 22 patient samples, plate coated with p244, inhibited with p63): 53%

Compound: P63-PEA-MDA: p63 modified with MDA and phosphatidylethanolamine (LSVKAQYKKNKHRHSITNPL; also: modified with MDA and phosphatidylethanolamine) [Peptide P63-PEA-MDA]
- amount of autoantibodies, mean absorbance after subtracting the blank [1]: 0.406—

Compound: natLDL: native human low density lipoprotein, used as antigen
- Reactivity of autoantibodies, absorbance (OxLDL EIA) ([3]; healthy controls (n = 17)): 0.351 ± 0.172
- Reactivity of autoantibodies, absorbance (OxLDL EIA) ([3]; patients (n = 19)): 0.258 ± 0.170

Compound: P244cyc-MDA: cyclic p63 modified with MDA (CGLSVKAQYKKNKHRHSITNPLGC; also: cyclic (mode not given here), modified with MDA) [Peptide P244cyc-MDA]
- amount of autoantibodies, mean absorbance after subtracting the blank [1]: 0.521—

Compound: MDAp63: p63 modified with MDA (LSVKAQYKKNKHRHSITNPL; also: malondialdehyde (MDA) coupled via primary amines of lysines)
- amount of autoantibodies, mean absorbance after subtracting the blank [1]: 0.601—
- reaction of autoantibodies (mean ±SD) ([1]; control samples, n=23): 0.533±0.077
- Reactivity of autoantibodies, absorbance (PEPTIDE EIA) ([1]; healthy controls (n = 17)): 0.497 ± 0.184
- MDAp63:natp63 ratio ([1]; healthy controls (n = 17)): 2.592 ± 0.751
- reaction of autoantibodies (mean ±SD) ([1]; patient samples, n=16): 0.431±0.040
- Reactivity of autoantibodies, absorbance (PEPTIDE EIA) ([1]; patients (n = 19)): 0.418 ± 0.141
- MDAp63:natp63 ratio ([1]; patients (n = 19)): 2.866 ± 0.924
- titer of patient samples lower when salt was added to sample diluent [4]: 47%

Compound: O=CCC=O [MDA, Malondialdehyde, reference compound]
- reaction of autoantibodies (mean ±SD) ([1]; control samples, n=23): 0.300±0.019
- reaction of autoantibodies (mean ±SD) ([1]; patient samples, n=16): 0.338±0.000

Compound: p244cyc: cyclic p244 (CGLSVKAQYKKNKHRHSITNPLGC; also: cyclic (way of cyclisation not given here))
- amount of autoantibodies, mean absorbance after subtracting the blank [1]: 0.734—
- average inhibition of the binding of patient samples ([2]; 8 patient samples, p244cyc): 61%
- titer of patient samples lower when salt was added to sample diluent [4]: 38%

Compound: oxLDL: copper-oxidized low density lipoprotein purified from human plasma, used as antigen
- oxLDL:natLDL ratio ([3]; healthy controls (n = 17)): 1.886 ± 0.689
- Reactivity of autoantibodies, absorbance (OxLDL EIA) ([3]; healthy controls (n = 17)): 0.591 ± 0.221
- oxLDL:natLDL ratio ([3]; patients (n = 19)): 2.535 ± 1.430
- Reactivity of autoantibodies, absorbance (OxLDL EIA) ([3]; patients (n = 19)): 0.600 ± 0.287

Compound: p244: a linear form of p63, which contains two extra amino acids (glycine and cysteine) at both ends of the peptide (CGLSVKAQYKKNKHRHSITNPLGC)
- amount of autoantibodies, mean absorbance after subtracting the blank [1]: 0.995—
- average inhibition of the binding of patient samples ([2]; 24 patient samples, p244): 70%
- titer of patient samples lower when salt was added to sample diluent [4]: 19%
